Experimental data taken from PMC12565300, “Novel Cyclic Tetrapeptides as Neuraminidase Inhibitors from a Sponge-Associated Penicillium sp. SCSIO41035” (Marine Drugs, 2025).

Tested on: two human carcinoma cell lines
Conditions: first of two human carcinoma cell lines; ref [7]; read-out: IC50 against human carcinoma cell line (first of two, unnamed); cited from earlier work
From the text: Cyclic tetrapeptides are a class of natural products with significant potential in drug discovery, characterized by their unique structural features and diverse biological activities. Their cyclic structure confers stability and contributes to their potency, while their low molecular weight and favorable lipophilicity enhance drug-like properties. […] The presence of hydr ...
For Asperterrestide A, the IC50 is listed as 6.2 µM.

Same assay, conditions: second of two human carcinoma cell lines; ref [7]; read-out: IC50 against human carcinoma cell line (second of two, unnamed); cited from earlier work
For Asperterrestide A, the IC50 is listed as 6.4 µM.

Tested on: neuraminidase
Conditions: 100 µg/mL; Mean ± SD (n not given); fluorogenic substrate, 37 °C, 30 min; ex 322 nm, em 450 nm; compound in DMSO
Experimental: 4.8. Neuraminidase Inhibitory Assay
The neuraminidase inhibitory activity was evaluated using a Neuraminidase In-hibitor Screening Kit (Beyotime Institute of Biotechnology, Shanghai, China). Assays were carried out in 96-well plates. For each well, 70 μL of neuraminidase assay buffer, 10 μL of neuraminidase solution, and 10 μL of test compound (dissolved in DMSO; final con-centration 100 μg/mL) were gently mixed. The reaction was initiated by adding 10 μL of the fluorogenic substrate to each well, and the plate was incubated at 37 °C for 30 min. Fluorescence was measured on an EnSpire microplate reader with excitation at 322 nm and emission at 450 nm. The fluorescence intensity of neuraminidase was measured at several concentrations to generate a standard curve relating fluorescence signal to enzyme concentration. The fluorescence corresponding to the highest neuraminidase concentration was set as 0% inhibition. Each sample well initially contained neuraminidase at this concentration, and the residual neuraminidase concentration after the reaction was determined from the measured fluorescence using the standard-curve equation. The inhibition percentages were then calculated.
With CC(C)/C=C1\NC(=O)[C@H](CCC(N)=O)n2c1nc1ccccc1c2=O [Compound 10, aurantiomide C] the “Inhibition Rate (neuraminidase inhibitory activity)” value (“Inhibition Rate” below) was 67.54 ± 0.87%. For Penicopeptide C [Compound 2], the “Inhibition Rate” value was 43.16 ± 1.23%. In the case of Penicopeptide D [Compound 3], the “Inhibition Rate” value is reported as 58.67 ± 3.51%. In the case of CC12NC(=O)C(C[C@]13C(=O)Nc1ccccc13)n1c2nc2ccccc2c1=O (stereo partly drawn) [Compound 8, alantrypinone], the “Inhibition Rate” value is reported as 43.85 ± 1.41%. With Penicopeptide H [Compound 7] the “Inhibition Rate” value was 57.78 ± 0.44%. With O=C1N[C@@]2(CO)c3nc4ccccc4c(=O)n3[C@@H]1C[C@@]21C(=O)Nc2ccccc21 [Compound 9, serantrypinone] the “Inhibition Rate” value was 51.67 ± 0.42%. For Penicopeptide B [Compound 1], the “Inhibition Rate” value was 52.90 ± 0.37%. With Penicopeptide G [Compound 6] the “Inhibition Rate” value was 63.65 ± 0.67%. With Penicopeptide F [Compound 5] the “Inhibition Rate” value was 85.40 ± 0.85%. In the case of Penicopeptide E [Compound 4], the “Inhibition Rate” value is reported as 74.01 ± 1.32%.
